The results in this text go back to patent US6566140B2, “Inhibition of coagulation in blood and blood products” (University of Vermont and State Agriculture College, priority 1998, dated 2003).

Test [1] deals with tissue factor initiated clotting in whole blood. Briefly: tissue factor dependent clotting assay in minimally altered whole blood, contact pathway suppressed with CTI, Hemochron ACT instrument. The format is cell-based, human. An excerpt: This assay uses an anti-coagulation sufficient amount of CTI to inhibit clotting in minimally altered whole blood. The assay is more particularly referred to herein as “tissue factor dependent clotting assay” or similar phrase. The assay is particularly useful for monitoring coagulation in whole or minimally altered whole blood. As an example, the assay is especially useful as a novel bedside tool that permits improved therapuetic assessment including standard antithrombotic and antiplatelet therapies. The assay should also facilitate improved dose selection, titration and monitoring of multicomponent antithrombotic, antiplatelet, and fibrinolytic treatment.
Blood samples were obtained from healthy individuals and the contact pathway of coagulation was inhibited with corn trypsin inhibitor(a specific factor XIIa inhibitor without effect on other coagulation factors.). Clotting was initiated with relipidated tissue factor and detected with a Hemochron ACT instrument. Results were reproducible with samples from 20 healthy volunteers (mean time to clot=118±9 seconds). In other studies, blood was exposed to pharmacologic concentrations of antithrombotic and antiplatelet agents in vitro. […] Additive effects of antiplatelet agents were readily detectable in contrast to the case with aPTT assays. Thus, addition of 3 μg/ml abciximab to 0.1 anti-IIa/Xa U/ml of heparin and to 0.4 anti-Xa U/ml of enoxaparin prolonged the times to clot by 62 and 52 seconds, respectively (p<0.05 for each).
Blood was harvested between 0900 and 1200 hours. Phlebotomies were performed with 19 gauge butterfly needles and a two syringe technique with which the first three ml of blood were discarded. Blood samples were drawn into syringes containing corn trypsin inhibitor (CTI, Enzyme Research Laboratories, South Bend, Ind.) alone in concentrations ranging from 32 to 300 μg/ml or in combination with selected pharmacologic concentrations of heparin (0.1, 0.25 and 0.4 anti-IIa/Xa U/ml), enoxaparin (0.4 and 0.8 anti-Xa U/ml, Rhone-Poulenc Rorer), hirudin ([…], Sigma), recombinant tick anticoagulant peptide (rTAP, 0.4 anti-Xa U/ml, kindly provided by Corvass International), or abciximab (3 μg/ml, Eli Lilly). The concentrations of heparin, enoxaparin and abciximab were chosen to simulate those attained in clinical practice and equivalent anti-IIa and anti-Xa concentrations of hirudin and rTAP -were chosen. Final volumes were 1 part anticoagulant to 9 parts blood.
A 400 μl aliguot of blood was added to a K-resin ACT tube kindly provided by International Technidyne without the glass beads traditionally used to activate the contact pathway. Lipidated tissue factor (1-60 pM, American Diagnostica, Greenwich, Conn.) was added to K-resin tubes before addition of blood.
The K-resin tubes containing tissue factor and blood were placed promptly in a Hemochron ACT instrument. The time to clot was detected by the displacement of a dependent magnet within the rotating tube when fibrin strands formed. The blood was maintained at 37° C. throughout the assay procedure.

For another test, the system named is aPTT. Briefly: aPTT of blood exposed to antithrombotic and antiplatelet agents. In kind it is biochemical, human. As for the experimental part: Blood was harvested between 0900 and 1200 hours. Phlebotomies were performed with 19 gauge butterfly needles and a two syringe technique with which the first three ml of blood were discarded. […] The concentrations of heparin, enoxaparin and abciximab were chosen to simulate those attained in clinical practice and equivalent anti-IIa and anti-Xa concentrations of hirudin and rTAP -were chosen. Final volumes were 1 part anticoagulant to 9 parts blood.

The mark [2] stands for this setting: abciximab 3 μg/ml added to 0.1 anti-IIa/Xa U/ml heparin.
The mark [3] stands for this setting: abciximab 3 μg/ml added to 0.4 anti-Xa U/ml enoxaparin.

“And” between values parts separate entries of the source, which are not always exact repeats. Identical values can stand only once. “Also recorded” adds a separate entry of the source.

Take enoxaparin: the “effect on the time to clot” value in test [1] (enoxaparin 0.4 and 0.8 anti-Xa U/ml, 200 μg/ml CTI, 20 pM tissue factor) is given as “increased with increasing concentrations”; in test [1] (enoxaparin 0.4 and 0.8 anti-Xa U/ml, 200 μg/ml CTI, 20 pM tissue factor, listed as Enoxaparin) it was “prolonged”. Besides, the “increase of the time to clot” value in test [1] (enoxaparin 0.4 anti-Xa U/ml) turned out to be 46 s. For the same molecule, the “effect on the aPTT” value was “increased with increasing concentrations” with aPTT (enoxaparin 0.4 and 0.8 anti-Xa U/ml); “prolonged” in the test on aPTT (enoxaparin 0.4 and 0.8 anti-Xa U/ml, listed as Enoxaparin). Also, the “increase of the aPTT” value in the test on aPTT (enoxaparin 0.4 anti-Xa U/ml) is 15 s.
For the molecule heparin, the “increase of the time to clot” value in test [1] (heparin 0.1 anti-IIa/Xa U/ml) amounted to 41 s. Further, the “effect on the time to clot” value in test [1] (heparin 0.25 and 0.4 anti-IIa/Xa U/ml, 200 μg/ml CTI, 20 pM tissue factor) is listed as “prolonged with increasing concentrations”; in test [1] (heparin 0.25 and 0.4 anti-IIa/Xa U/ml, 200 μg/ml CTI, 20 pM tissue factor, listed as Heparin) it was “prolonged”. Further, the “increase of the aPTT” value with aPTT (heparin 0.1 anti-IIa/Xa U/ml) is 34 s. For the same molecule, the “effect on the aPTT” value with aPTT (heparin 0.25 and 0.4 anti-IIa/Xa U/ml) is recorded as “prolonged with increasing concentrations”; with aPTT (heparin 0.25 and 0.4 anti-IIa/Xa U/ml, listed as Heparin), “prolonged”.
hirudin: in test [1] (hirudin 0.4 and 0.8 anti-IIa U/ml, 200 μg/ml CTI, 20 pM tissue factor), the “effect on the time to clot” value is listed as “prolonged the time to clot at each concentration tested”. For the same molecule, the “prolongation of the time to clot” value in test [1] (hirudin 0.4 anti-IIa U/ml, 200 μg/ml CTI, tissue factor initiated) is 21 s; in test [1] (hirudin 0.8 U/ml, 200 μg/ml CTI, 20 pM tissue factor), 37 s. Moreover, the “prolongation of the aPTT” value with aPTT (hirudin 0.4 anti-IIa U/ml) is 3 s; in the test on aPTT (hirudin 0.8 U/ml), 16 s. Moreover, the “effect on the aPTT” value in the test on aPTT (hirudin 0.4 anti-IIa U/ml (versus 0.8 U/ml)) was “significantly prolonged only with the higher concentration; also recorded: detected only with 0.8 U/ml; also recorded: not affected”; with aPTT (hirudin 0.4 anti-IIa U/ml (versus 0.8 U/ml), listed as Hirudin) it was “without prolonging the aPTT”.
Regarding “rTAP: recombinant tick anticoagulant peptide, a specific inhibitor of factor Xa (YNRLCIKPRDWIDECDSNEGGERAYFRNGKGGCDSFWICPEDHTGADYYSSYRDCFNACI; UniProt P17726 1-60, looked up)”, the “effect on the time to clot” value in test [1] (rTAP 0.4 anti-Xa U/ml, 200 μg/ml CTI, 20 pM tissue factor) is given as “prolonged the time to clot”. Also, the “prolongation of the time to clot” value in test [1] (rTAP 0.4 anti-Xa U/ml, 200 μg/ml CTI, tissue factor initiated) was determined as 229 s. Moreover, the “effect on the aPTT” value in the test with aPTT (rTAP 0.4 anti-Xa U/ml) is recorded as “no effect; also recorded: not affected”; in the test on aPTT (rTAP 0.4 anti-Xa U/ml, listed as tick anticoagulant peptide), “without prolonging the aPTT”. The “prolongation of the aPTT” value with aPTT (tick anticoagulant peptide 0.4 anti-Xa U/ml) amounted to 3 s.

B1: abciximab (antibody, chains of the INN, looked up, V domains shown)
VH: EVQLQQSGTVLARPGASVKMSCEASGYTFTNYWMHWVKQRPGQGLEWIGAIYPGNSDTSYIQKFKGKAKLTAVTSTTSVYMELSSLTNEDSAVYYCTLYDGYYVFAYWGQGTLVTVSA
VL: EIVLTQSPVTLSVTPGDSVSLSCRASRDISNNLHWFQQTSHESPRLLIKYASQSMSGIPSRFSGSGSGTDFTLSINSVETEDFGMYFCQQTNSWPYTFGGGTKLEIK
modifications: Fab
notes: commercially available monoclonal antibody against platelet glycoprotein gpIIb-IIIa
Turning to B1, the “effect of the combination on the time to clot” value is listed as “prolonged the time to clot compared with heparin alone” in test [1] (0.1 anti-IIa U/ml heparin with 3 μg/ml abciximab, 200 μg/ml CTI, 20 pM tissue factor) and “prolonged the time to clot compared with enoxaparin alone” in test [1] (0.4 anti-Xa U/ml enoxaparin with 3 μg/ml abciximab, 200 μg/ml CTI, 20 pM tissue factor). Moreover, the “further prolongation of the time to clot compared with heparin alone” value in test [1] (setting [2]) is 62 s and 61 s. In addition, the “further prolongation of the time to clot compared with enoxaparin alone” value in test [1] (setting [3]) was 52 s. Moreover, the “prolongation of the time to clot by the combination” value in test [1] (abciximab 3 μg/ml and heparin in combination) is 102 s. The “effect on the aPTT of adding abciximab to heparin” value with aPTT (setting [2]) was “not affected; also recorded: did not prolong further the aPTT; also recorded: did not affect the aPTT”. The “effect on the aPTT of adding abciximab to enoxaparin” value in the test with aPTT (setting [3]) was “not affected; also recorded: did not prolong further the aPTT”.

B2: lipidated tissue factor: lipidated tissue factor (American Diagnostica), initiator of clotting (protein, UniProt P13726 33-295, looked up)
Tissue factor: SGTTNTVAAYNLTWKSTNFKTILEWEPKPVNQVYTVQISTKSGDWKSKCFYTTDTECDLTDEIVKDVKQTYLARVFSYPAGNVESTGSAGEPLYENSPEFTPYLETNLGQPTIQSFEQVGTKVNVTVEDERTLVRRNNTFLSLRDVFGKDLIYTLYYWKSSSSGKKTAKTNTNEFLIDVDKGENYCFSVQAVIPSRTVNRKSTDSPVECMGQEKGEFREIFYIIGAVVFVVIILVIILAISLHKCRKAGVGQSWKENSPLNVS
modifications: lipidated
notes: lipidated tissue factor (American Diagnostica), initiator of clotting
With B2, the “effect on the time to clot” value in test [1] (lipidated tissue factor 1.0 to 60 pM, 12 subjects) is given as “concentration dependent decrease in the time to clot”.
